According to patent publication US8420571B2, “Synergistic herbicidal composition containing fluroxypyr and cyhalofop, metamifop or profoxydim” (Dow AgroSciences, LLC, priority 2009, dated 2013):
Several values for one entry are separate records, joined by “and”; a condition that tells them apart may be missing. Equal entries are not always repeated.

Columns and labels:
Format in all cases: in vivo
[1] = test system: giant foxtail (Setaria faberi; SETFA); experiment: Postemergence herbicidal activity of mixtures in the greenhouse, visual weed control; settings: 21 DAA, Table 2
Protocol: (§1) Evaluation of Postemergence Herbicidal Activity of Mixtures in the Greenhouse
(§2) Seeds of the desired test plant species were planted in 80% mineral soil/20% grit planting mixture, which typically has a pH of 7.2 and an organic matter content of about 2.9 percent, in plastic pots with a surface area of 128 square centimeters (cm^2). The growing medium was steam sterilized. The plants were grown for 7-19 days in a greenhouse with an approximate 14-hour (h) photoperiod which was maintained at about 29° C. during the day and 26° C. during the night. Nutrients and water were added on a regular basis and supplemental lighting was provided with overhead metal halide 1000-Watt lamps as necessary. The plants were treated with postemergence foliar applications when they reached the third to fourth true leaf stage. All treatments were applied using a randomized complete block trial design, with 4 replications per treatment.
(§3) Treatments consisted of the compounds as listed in Tables 1, 2, 4 and 5 with each compound applied alone and in combination. Formulated amounts of cyhalofop-butyl, metamifop, profoxydim and fluoroxypyr-meptyl ester, were placed in 60 milliliter (mL) glass vials and dissolved in a volume of 60 mL of a water solution containing Agri-dex crop oil concentrate in a 1% volume per volume (v/v) ratio. Compound requirements are based upon a 12 mL application volume at a rate of 187 liters per hectare (L/ha). Spray solutions of the mixtures were prepared by adding the stock solutions to the appropriate amount of dilution solution to form 12 mL spray solution with active ingredients in single and two way combinations. Formulated compounds were applied to the plant material with an overhead Mandel track sprayer equipped with 8002E nozzles calibrated to deliver 187 L/ha at a spray height of 18 inches ([…] (cm)) above average plant canopy.
(§4) The treated plants and control plants were placed in a greenhouse as described above and watered by sub-irrigation to prevent wash-off of the test compounds. Treatments were rated at 14 to 21 days after application as compared to the untreated control plants. Percent visual weed control was scored on a scale of 0 to 100 percent where 0 corresponds to no injury and 100 corresponds to complete kill.
(§5) Colby's equation was used to determine the herbicidal effects expected from the mixtures (Colby, S. R. Calculation of the synergistic and antagonistic response of herbicide combinations. Weeds 1967, 15, 20-22.).
(§6) The following equation was used to calculate the expected activity of mixtures containing two active ingredients, A and B: Expected=A+B−(A×B/100)
(§7) A=observed efficacy of active ingredient A at the same concentration as used in the mixture.
(§8) B=observed efficacy of active ingredient B at the same concentration as used in the mixture.

[2] = test system: broadleaf signalgrass (Brachiaria platyphylla; BRAPP); experiment: as above
Protocol: as §1, §2, §3, §4, §5, §6, §7, §8

[3] = test system: barnyardgrass (Echinochloa crus-galli; ECHCG); experiment: as above
Protocol: as §1, §2, §3, §4, §5, §6, §7, §8

[4] = test system: Chinese sprangletop (Leptochloa chinensis; LEFCH); experiment: as above; settings: 21 DAA
Protocol: as §1, §2, §3, §4, §5, §6, §7, §8

[5] = test system: winklegrass (Ischaemum rugosum; ISCRU); experiment: as above; settings: 14 DAA, Table 1
Protocol: as §1, §2, §3, §4, §5, §6, §7, §8

[6] = test system: barnyardgrass (Echinochloa crus-galli; ECHCG); experiment: Postemergence herbicidal activity of mixtures in the field (drill-seeded rice), visual weed control; settings: 29-36 DAA, Table 3
Protocol: (§9) Evaluation of Postemergence Herbicidal Activity of Mixtures in the Field
(§10) Field trials were conducted in drill-seeded rice using standard herbicide small plot research methodology. Plots were typically 3×10 meters (m, width×length) in size with 4 replicates per treatment. The rice crop was grown using normal cultural practices for fertilization, seeding, watering, flooding and maintenance to ensure good growth of the crop and the weeds.
(§11) All treatments in the field trials were applied using a carbon dioxide (CO2) backpack sprayer calibrated to apply 187 L/ha spray volume. Commercially available products of cyhalofop-butyl and fluoroxypyr-meptyl were mixed in water at appropriately formulated product rates to achieve the desired rates based on a unit area of application (hectare) to achieve the desired application rates as shown. Treatments were rated at 29 to 36 days after application (DAA) as compared to the untreated control plants. Percent visual weed control was scored on a scale of 0 to 100 percent where 0 corresponds to no injury and 100 corresponds to complete kill.
(§12) All treatment results, both for the single product and mixtures, are an average of 4 replicates and the tank mix interactions are significant at the […] level using Tukey's T-test.
as §5, §6, §7, §8

[7] = test system: tighthead sprangletop (Leptochloa panicoides; LEFPA); experiment: as above; settings: 29-36 DAA, Table 3
Protocol: as §9, §10, §11, §12, §5, §6, §7, §8

[8] = Fluroxypyr 50 g ae/ha alone, 21 DAA, Table 4
[9] = Fluroxypyr 70 g ae/ha alone, 14 DAA, Table 1
[10] = Fluroxypyr 100 g ae/ha alone, 21 DAA, Table 4
[11] = Fluroxypyr 200 g ae/ha alone, 21 DAA, Table 4
[12] = Metamifop 7.5 g ai/ha alone, 21 DAA, Table 4
[13] = Metamifop 15 g ai/ha alone, 21 DAA, Table 4

For `Nc1c(Cl)c(F)nc(OCC(=O)O)c1Cl` [Fluroxypyr, [(4-amino-3,5-dichloro-6-fluoro-2-pyridinyl)oxy]acetic acid], the “% Control SETFA Ob” value ([1]; Fluroxypyr 140 g ae/ha alone) was 50%, the “% Control BRAPP Ob” value [2, 8] was 5% and the “% Control BRAPP Ob” value [2, 9] was 22%. The “% Control BRAPP Ob” value [2, 10] was 1%, the “% Control BRAPP Ob” value [2, 11] was 5% and the “% Control ECHCG Ob” value [3, 8] was 0%. For the same compound, the “% Control ECHCG Ob” value ([3]; Fluroxypyr 50 g ae/ha alone, 21 DAA, Table 5) was 0%, the “% Control ECHCG Ob” value [3, 9] was 14% and the “% Control ECHCG Ob” value [3, 10] was 11%. For the same compound, the “% Control ECHCG Ob” value ([3]; Fluroxypyr 100 g ae/ha alone, 21 DAA, Table 5) was 0%, the “% Control ECHCG Ob” value ([3]; Fluroxypyr 140 g ae/ha alone, 14 DAA, Table 1) was 9% and the “% Control ECHCG Ob” value [3, 11] was 6%. For the same compound, the “% Control ECHCG Ob” value ([3]; Fluroxypyr 200 g ae/ha alone, 21 DAA, Table 5) was 5%, the “% Control ECHCG Ob” value ([3]; Fluroxypyr 280 g ae/ha alone, 14 DAA, Table 1) was 8% and the “% Control LEFCH Ob” value ([4]; Fluroxypyr 50 g ae/ha alone, Table 4) was 6%. The “% Control LEFCH Ob” value ([4]; Fluroxypyr 70 g ae/ha alone, Table 2) was 28%, the “% Control LEFCH Ob” value ([4]; Fluroxypyr 100 g ae/ha alone, Table 5) was 41% and the “% Control LEFCH Ob” value ([4]; Fluroxypyr 140 g ae/ha alone, Table 2) was 5%. For the same compound, the “% Control LEFCH Ob” value ([4]; Fluroxypyr 200 g ae/ha alone, Table 4) was 41%, the “% Control LEFCH Ob” value ([4]; Fluroxypyr 200 g ae/ha alone, Table 5) was 48% and 49% and the “% Control ISCRU Ob” value ([5]; Fluroxypyr 140 g ae/ha alone) was 15%. For the same compound, the “% Control ECHCG Ob” value ([6]; Fluroxypyr 580 g ae/ha alone) was 0%, the “% Control LEFPA Ob” value ([7]; Fluroxypyr 190 g ae/ha alone) was 0% and the “% Control LEFPA Ob” value ([7]; Fluroxypyr 290 g ae/ha alone) was 3%. For the same compound, the “% Control LEFPA Ob” value ([7]; Fluroxypyr 580 g ae/ha alone) was 0%.
For `C[C@@H](Oc1ccc(Oc2ccc(C#N)cc2F)cc1)C(=O)O` [Cyhalofop, (2R)-2-[4-(4-cyano-2-fluorophenoxy)phenoxy]-propanoic acid], the “% Control SETFA Ob” value ([1]; Cyhalofop 63 g ae/ha alone) was 82%, the “% Control BRAPP Ob” value ([2]; Cyhalofop 253 g ae/ha alone, 14 DAA, Table 1) was 77% and the “% Control ECHCG Ob” value ([3]; Cyhalofop 63 g ae/ha alone, 14 DAA, Table 1) was 55%. For the same compound, the “% Control ECHCG Ob” value ([3]; Cyhalofop 126 g ae/ha alone, 14 DAA, Table 1) was 73%, the “% Control LEFCH Ob” value ([4]; Cyhalofop 63 g ae/ha alone, Table 2) was 67% and the “% Control ISCRU Ob” value ([5]; Cyhalofop 126 g ae/ha alone) was 15%. The “% Control ECHCG Ob” value ([6]; Cyhalofop 262 g ae/ha alone) was 67% and the “% Control LEFPA Ob” value ([7]; Cyhalofop 262 g ae/ha alone) was 33%.
In the case of `C[C@@H](Oc1ccc(Oc2nc3ccc(Cl)cc3o2)cc1)C(=O)N(C)c1ccccc1F` [Metamifop, (2R)-2-[4-[(6-chloro-2-benzoxazolyl)oxy]-phenoxy]-N-(2-fluorophenyl)-N-methylpropanamide], the “% Control BRAPP Ob” value [2, 12] is reported as 25%, the “% Control BRAPP Ob” value [2, 13] is reported as 54% and the “% Control ECHCG Ob” value [3, 12] is reported as 5%. The “% Control ECHCG Ob” value [3, 13] was 33%, the “% Control ECHCG Ob” value ([3]; Metamifop 30 g ai/ha alone, 21 DAA, Table 4) was 74% and the “% Control LEFCH Ob” value ([4]; Metamifop 7.5 g ai/ha alone, Table 4) was 23%. For the same compound, the “% Control LEFCH Ob” value ([4]; Metamifop 30 g ai/ha alone, Table 4) was 88%.
`CCCC(=NOCC(C)Oc1ccc(Cl)cc1)C1=C(O)CC(C2CCCSC2)CC1=O` (stereo not shown) [Profoxydim, 2-[1-[[2-(4-chlorophenoxy)propoxy]imino]-butyl]-3-hydroxy-5-(tetrahydro-2H-thiopyran-3-yl)-2-cyclohexen-1-one] was tested, and the “% Control ECHCG Ob” value ([3]; Profoxydim 25 g ai/ha alone, 21 DAA, Table 5) was 54%, the “% Control LEFCH Ob” value ([4]; Profoxydim 25 g ai/ha alone, Table 5) was 61% and the “% Control LEFCH Ob” value ([4]; Profoxydim 50 g ai/ha alone, Table 5) was 78%.
